Data published in ChEMBL document CHEMBL4177622, “Enhanced radical scavenging activity of a procyanidin B3 analogue comprised of a dimer of planar catechin” (Bioorg Med Chem Lett, 2017).

Test: Antioxidant activity assessed as second order rate constant for galvinoxyl radical scavenging activity in presence of deaerated conditions by UV-Vis spectrophotometric analysis
Format: functional

| SMILES | K |
| --- | --- |
| CC1(C)O[C@H]2Cc3c(O)cc(O)cc3O[C@@H]2c2cc(O)c(O)cc21 | 1.5 ×10² /mol/s |
| Oc1cc(O)c2c(c1)O[C@H](c1ccc(O)c(O)c1)[C@@H](O)[C@@H]2c1c(O)cc(O)c2c1O[C@H](c1ccc(O)c(O)c1)[C@@H](O)C2 | 1 ×10² /mol/s |
| CC1(C)O[C@H]2Cc3c(O)cc(O)c([C@@H]4c5c(O)cc(O)cc5O[C@H](c5ccc(O)c(O)c5)[C@H]4O)c3O[C@@H]2c2cc(O)c(O)cc21 | 1.89 ×10² /mol/s |
| Oc1cc(O)c2c(c1)O[C@H](c1ccc(O)c(O)c1)[C@@H](O)C2 | 2.6 ×10¹ /mol/s |
| CC1(C)O[C@H]2[C@H](c3c(O)cc(O)c4c3O[C@@H]3c5cc(O)c(O)cc5C(C)(C)O[C@H]3C4)c3c(O)cc(O)cc3O[C@@H]2c2cc(O)c(O)cc21 | 2.85 ×10² /mol/s |
